Activity, Drug metabolism and Retention_time data for one compound are collected here from ChEMBL document CHEMBL3600339, “Novel Resveratrol-Based Aspirin Prodrugs: Synthesis, Metabolism, and Anticancer Activity” (J Med Chem, 2015).

The structures appear in SMILES notation. Calls of active or inactive are those of the source. The calls are words filed in the database; no cut-off is given here.

In series [1] the test system is HCT-116. Nature of the series: Cell cycle arrest in human HCT116 cells assessed as accumulation at G0/G1 phase at 20 uM after 24 hrs by propidium iodide staining-based flow cytometric analysis (reference value: 37.89%). Type of series: functional. Background: A flow cytometer gives signals particle by particle.
The test system of series [2] is HT-29. Nature of the series: Induction of apoptosis in human HT-29 cells at 20 uM after 24 hrs by propidium iodide staining-based flow cytometric analysis (reference value: 3.74%). The series is classed as functional.
Series [3] has as its system HCT-116. As to the kind of experiment: Prodrug conversion in human HCT116 cells assessed as formation of deacetyl RAH at 20 uM after 2 to 4 hrs by HPLC-CEAD analysis. The settings on record: hct-116, 20 µM. Type of series: ADME, cell-based.
The subject of series [4] is HT-29. Nature of the series: Cell cycle arrest in human HT-29 cells assessed as accumulation at G1 phase after 24 hrs by propidium iodide staining-based flow cytometric analysis. The series is classed as functional.
In series [5] the test system is HT-29. Nature of the series: Induction of apoptosis in human HT-29 cells assessed as upregulation of cleaved caspase 3 expression at 20 to 60 uM after 24 hrs by Western blot analysis. The series is classed as functional, cell-based.
Series [6] has as its system HT-29. Nature of the series: Cell cycle arrest in human HT-29 cells assessed as downregulation of cyclin D1 expression after 24 hrs by Western blot analysis. The series is classed as functional, cell-based. On the technique in general: In western blotting, separated proteins are transferred to a membrane and probed.
The subject of series [7] is HCT-116. As to the kind of experiment: Cell cycle arrest in human HCT116 cells assessed as downregulation of cyclin D1 expression after 24 hrs by Western blot analysis. The series is classed as functional, cell-based.
Series [8] has as its system HCT-116. As to the kind of experiment: Induction of apoptosis in human HCT116 cells assessed as upregulation of cytochrome C expression at 20 to 60 uM after 24 hrs by Western blot analysis. Type of series: functional, cell-based.
For series [9], the system named is HCT-116. Nature of the series: Induction of apoptosis in human HCT116 cells assessed as upregulation of Bax expression after 24 hrs by Western blot analysis. Type of series: functional, cell-based.
Series [10] relates to HCT-116. As to the kind of experiment: Cell cycle arrest in human HCT116 cells assessed as accumulation at S phase at 40 uM after 24 hrs by propidium iodide staining-based flow cytometric analysis (reference value: 34.85%). The series is classed as functional.
Series [11] concerns HCT-116. As to the kind of experiment: Induction of apoptosis in human HCT116 cells assessed as upregulation of Bim expression after 24 hrs by Western blot analysis. Type of series: functional, cell-based.
Series [12] has as its system HT-29. Nature of the series: Induction of apoptosis in human HT-29 cells assessed as downregulation of Bcl2 expression after 24 hrs by Western blot analysis. Type of series: functional, cell-based.
The test system of series [13] is HCT-116. As to the kind of experiment: Induction of apoptosis in human HCT116 cells assessed as upregulation of Bad expression after 24 hrs by Western blot analysis. The series is classed as functional, cell-based.
In series [14] the test system is HT-29. Nature of the series: Cell cycle arrest in human HT-29 cells assessed as accumulation at G0/G1 phase at 20 uM after 24 hrs by propidium iodide staining-based flow cytometric analysis (reference value: 33.61%). The series is classed as functional.
Series [15] in a line: Retention time of the compound in C57BL/6J mouse feces at 200 mg/kg, ig by HPLC-CEAD analysis. Type of series: ADME, organism-based. The settings on record: in vivo, po.

For the compound `CC(=O)Oc1ccccc1C(=O)Oc1ccc(/C=C/c2cc(O)cc(O)c2)cc1`, the Activity in the series on HCT-116 [1] was 48.4%; in the series on HT-29 [2], 16.4%; with HT-29 [4] it was “Dose-dependent effect”; in the series with HT-29 [6], “Dose-dependent effect”; with HCT-116 [7] it was “Dose-dependent effect”; in the series on HCT-116 [9] it was “Dose-dependent effect”. Besides, the Activity with HCT-116 [10] is 33.84%; with HCT-116 [11], “Dose-dependent effect”; with HT-29 [12], “Dose-dependent effect”; in the series with HCT-116 [13], “Dose-dependent effect”; with HT-29 [14], 36.01%. In the series on HCT-116 [3], the Drug metabolism result is recorded as “metabolite_detected”. The outcome in the series on HT-29 [5] and in the series on HCT-116 [8] was Active. This compound came in with a Retention_time in series [15] of 43 min.
